Entries after “also recorded” stand apart in the source; their conditions may differ.
How the values were obtained:
Type in all cases: cell-based, human
[1] = tested on: ATP6V1A; experiment: ATP6V1A mRNA expression in drug-treated NPCs (LINCS profiles); details: drug-treated vs DMSO-treated, LINCS data
From the text: Compounds were screened for drugs that can rescue the in vitro and in vivo phenotypes arising from ATP6V1A deficits. Using their drug repositioning tool, Ensemble of Multiple Drug Repositioning Approaches (EMUDRA) (Zhou et al., 2018b), the inventors matched the disease signature from the BM36-PHG region and the signatures of 3,629 drugs tested in the NPCs in the Library of Integrated Network-based Cellular Signatures (LINCS) project (FIG. 6A). The inventors further prioritized candidate drugs by their potential to increase the mRNA expression of ATP6V1A in the NPCs.
To identify existing drugs that can restore the molecular expression change in the LOAD brains, the inventors performed a drug repositioning analysis using EMUDRA, which provides a novel computational algorithm to match disease signatures and drug-induced signatures. The inventors downloaded drug-treated gene expression profiles (level 3 data of quantile-normalized and log 2 transformed expression levels from human iPSC-derived neural progenitor cells (NPCs) from the Library of Integrated Network-Based Cellular Signatures (LINCS) program. After removing probes sets mapping to multiple genes or without known gene annotation, the remaining data were adjusted for batch effects using linear regression. The mean expression level of multiple probe sets that match to the same gene was used as the expression level for that gene. For each drug, the applied drug signature was the transcriptome-wide expression difference between drug-treated and DMSO-treated gene expression profiles. The inventors matched each of the drug signatures to the LOAD signature using EMUDRA to find drugs that could reverse the LOAD signature. […] In total, 3,629 drug signatures were analyzed and ranked. The inventors further prioritized the top-ranked drugs that can increase ATP6V1A mRNA expression in the NPCs.

[2] = tested on: ATP6V1A; experiment: ATP6V1A gene expression-based compound screening (qRT-PCR) in hiPSC-derived NPCs; details: for ATP6V1A mRNA level / gene expression: hiPSC-derived NPCs, qRT-PCR vs DMSO
From the text: Thirty nine new compounds were synthesized by chemical synthesis and evaluated for their capability to elevate the mRNA level of ATP6V1A and the neuronal activities in hiPSC-derived NPCs. […] These disclosures indicate that the chemical structure to the right in LQ081-166 has a structure-activity relationship necessary for ATP6V1A activation.
To identify useful drugs for targeting this novel therapeutic target, the inventors synthesized 39 new compounds by chemical synthesis and evaluated their capability of elevating the mRNA level of ATP6V1A and neuronal activity in hiPSC-derived NPCs.
To improve the potency and efficacy of the drugs, an additional 18 derivatives based on LQ081-166 were synthesized (FIG. 7B). […] The inventors determined that the thioester and benzyl group in LQ081-166 has a structure-activity relationship necessary for ATP6V1A activation.
FIG. 7. ATP6V1A gene expression-based compounds screening. (A) qRT-PCR analysis (N=3-12) to determine the relative changes in ATP6V1A gene expression after exposure to 40 chemical compounds. ****, p<0.0001 (one-way ANOVA). DMSO serves as vehicle control. (B) Molecular modification of LQ081-166 and chemical structure of LQ108-32. (C) qRT-PCR analysis of relative ATP6V1A gene expression after exposure to LQ081-166 derivatives. Grey scale bars in the graph are associated with the categories of molecular modification. Note that LQ108-51/52/53 is a small pool of three LQ081-166 derivatives. (D) Effects of LQ081-166 at 0.3, 1, 3, and 10 μM on ATP6V1A mRNA level after 24-h exposure. *, p<0.05; **, p<0.01 (one-way ANOVA).
Quantitative reverse transcription PCR (qRT-PCR) was performed as previously described. […] Quantitative transcript analysis was performed using a QuantStudio 7 Flex Real-Time PCR System with the Power SYBR Green RNA-to-Ct Real-Time qPCR Kit (all Thermo Fisher Scientific). […]
A stock solution of LQ081-166 (molecular weight: 452.63) at 3 mM is prepared in dimethyl sulfoxide (DMSO). […] After 24-hour treatment, RNA was extracted from cells for quantitative PCR. […]

[3] = tested on: hiPSC-derived NGN2 neurons; experiment: Multi-electrode array (MEA) neuronal activity
Procedure: To evaluate electrical activity of NGN2-neurons by MEA, density-matched isogenic NGN2-neuronal populations, co-cultured with pHAs, were prepared as described above. Specifically, at day 3, pHAs were split as 17,000 cells/well in a Matrigel-coated 48W MEA plate (Axion Biosystems, M768-tMEA-48W) and maintained as above. At day 7, NGN2-neurons were detached, spun down and seeded on the pHA culture. Outer space of each well in the plate was filled up with autoclaved/deionized water to minimize the evaporation of marginal wells (“edge effect”) during long-term culture. Half volume of neuronal medium (supplemented with 2% FBS) was replaced with fresh medium including 200 nM Ara-C from day 9 until the end of MEA recording. Electrical activity of neurons was recorded daily during day 14-24. On the recording day, the plate was loaded into the Axion Maestro MEA reader (Axion Biosystems). Recording was performed via AxiS 2.4 for 10 mins. Quantitative analysis of the recording was exported as a Microsoft excel sheet. Data were analyzed using GraphPad PRISM 6 software.
(§1) A stock solution of LQ081-166 (molecular weight: 452.63) at 3 mM is prepared in dimethyl sulfoxide (DMSO). Once prepared, aliquot the stock solution into 100 μL amounts and store at −80° C. Avoid repeated freeze-thaw cycles. The stock is diluted 1000× into neuronal medium to obtain 3 μM for assays. After 24-hour treatment, RNA was extracted from cells for quantitative PCR. In the MEA assay, LQ081-166 was added on neuronal differentiation day 14. Replace with medium containing drug or vehicle every 2-3 days until the final recording day.

[4] = tested on: ATP6V1A; experiment: ATP6V1A mRNA (qRT-PCR) and protein (western blot) levels in hiPSC-derived NGN2 neurons (iNs); details: for transcriptional and translational levels of ATP6V1A: D21 iNs, concentrations between 1 and 30 μM
Procedure: To verify this discovery, the inventors measured the transcriptional and translational levels of ATP6V1A in D21 iNs treated with the 3 HDAC inhibitors at a series of concentrations between 1 and 30 μM.
CRISPR inhibition (CRISPRi) was used to repress endogenous ATP6V1A in hiPSC-derived NGN2 neurons. […] Next, the inventors investigated whether LQ081-166 rescued the phenotypes of ATP6V1A deficit and reduced neuronal activity.
Quantitative reverse transcription PCR (qRT-PCR) was performed as previously described. Specifically, cell cultures were harvested with Trizol and total RNA extraction was carried out following the manufacturer's instructions. Quantitative transcript analysis was performed using a QuantStudio 7 Flex Real-Time PCR System with the Power SYBR Green RNA-to-Ct Real-Time qPCR Kit (all Thermo Fisher Scientific). Total RNA template (25 ng per reaction) was added to the PCR mix, including primers listed below. qPCR conditions were as follows; 48° C. for 30 min, 95° C. for 10 min followed by 40 cycles (95° C. for 15 s, 60° C. for 60 s). All qPCR data is collected from at least 3 independent biological replicates of one experiment. Data analyses were performed using GraphPad PRISM 6 software.
Cells were rinsed with ice-cold phosphate-buffered saline (PBS), pelleted, and lyzed in RIPA Lysis and Extraction Buffer (Thermo Fisher Scientific, #89900) containing Halt™ Protease and Phosphatase Inhibitor Cocktail (Thermo Fisher Scientific, #78440). Alternatively, MSBB BM36 brain samples were homogenized with similar methods. Samples were sonicated for 1 minute then centrifuged at 13,000× rpm for 10 min. The supernatant was collected, and total protein concentration was determined using Quick Start™ Bradford Protein Assay (Bio-Rad, 5000201) following the manufacturer's instructions.
Images were captured and quantified using the Odyssey® Imaging Systems (LI-COR. Inc.).
as §1

SMILES	ATP6V1A (log2FC) [1] [log2FC]	also measured
CC[C@H]1CN2CCc3cc(OC)c(OC)cc3C2C[C@@H]1CC1NCCc2cc(OC)c(OC)cc21 (stereo partly shown) [BRD-A25687296]	2.37	–
CC1CC(C)C(=O)C(C(O)CC2CC(=O)NC(=O)C2)C1 (stereo not shown) [BRD-A62184259]	1.46	–
C[C@]12CC[C@H]3[C@@H](CC[C@]4(O)C[C@@H](O)CC[C@]34C=O)[C@@]1(O)CC[C@@H]2C1=CC(=O)OC1 [BRD-K84595254]	2.98	–
Nc1ccccc1NC(=O)c1ccc(CNC(=O)OCc2cccnc2)cc1 [BRD-K77908580]	1.54	–
O=C(CCCCCCC(=O)SCCc1ccccc1)Nc1nc(-c2ccccc2)cs1 [LQ108-32, S-phenethyl 8-oxo-8-((4-phenylthiazol-2-yl)amino)octanethioate]	–	ATP6V1A mRNA level / gene expression ([2]; listed as LQ081-32): did not affect; also recorded: inability to affect
CCC(=O)CCCCC[C@@H]1NC(=O)[C@H]2CCCCN2C(=O)[C@H]([C@@H](C)CC)NC(=O)[C@H](Cc2cn(OC)c3ccccc23)NC1=O [apicidin]	0.99	–
O=C(CCCCCCSC(=O)CCc1ccccc1)Nc1nc(-c2ccccc2)cs1 [LQ081-166, S-(7-oxo-7-((4-phenylthiazol-2-yl)amino)heptyl) 3-phenylpropanethioate]	–	restoration of neuronal activity (MEA) ([3]; ATP6V1A KD neurons, regardless of presence/absence of Aβ exposure, 3 μM): partially restoring neuronal activity; neuronal activity (MEA) ([3]; NGN2 neurons, 3 μM LQ081-166): potent activator of neuronal activity; ATP6V1A mRNA level ([4]; ATP6V1A KD hiPSC-derived NGN2 neurons): restores ATP6V1A mRNA level; ATP6V1A mRNA level ([4]; NGN2 neurons, 3 μM, 24 hours): significantly increased; dose dependence of effect on ATP6V1A mRNA level ([2]; 0.3, 1, 3 and 10 μM, 24-h exposure): dose-dependent effect; ATP6V1A mRNA level / gene expression [2]: most significantly increased
C[C@@H]1C[C@@H]([C@H](O)CC2CC(=O)NC(=O)C2)C(=O)[C@@H](C)C1 [BRD-K36055864]	2.00	–
C[C@@H]1O[C@@H](O[C@@H]2C=C3CCC4C(CC[C@]5(C)[C@@H](c6ccc(=O)oc6)CC[C@]45O)[C@@]3(C)CC2)[C@H](O)[C@H](O)[C@H]1O (stereo partly shown) [BRD-A34806832]	1.49	–
Nc1ccccc1NC(=O)c1ccc(CNC(=O)OCc2cccnc2)cc1 [MS-275]	–	transcriptional and translational levels of ATP6V1A [4]: ineffective
CN(C)c1ccc(C(=O)NCCCCCCC(=O)NO)cc1 [m-344]	0.84	–
CC[C@H]1CN2CCc3cc(OC)c(OC)cc3[C@@H]2C[C@@H]1C[C@H]1NCCc2cc(O)c(OC)cc21 [BRD-K80348542]	1.09	–
C[C@@H]1CN([C@@H](C)CO)C(=O)c2cccc(NC(=O)c3ccc(-c4nccs4)cc3)c2O[C@@H]1CN(C)Cc1ccc(C(=O)Nc2ccccc2N)cc1 [BRD-K56196992]	1.47	–
O=C(CCCCCCC(=O)Nc1ccccc1)NO [SAHA]	0.77	transcriptional and translational levels of ATP6V1A [4]: ineffective
CC(/C=C/C(=O)NO)=C\[C@@H](C)C(=O)c1ccc(N(C)C)cc1 [trichostatin a]	0.61	–
O=C(CCCCCN1C(=O)c2cccc3cccc(c23)C1=O)NO [scriptaid]	0.78	–

Source: US20240327427A1, “NEW COMPOUNDS FOR THE TREATMENT OF ALZHEIMER'S DISEASE” (Icahn School of Medicine at Mount Sinai, priority 2020, published 2024)
